The values that follow come from US20090286869A1, “Flavanols and B-Type Procyanidins and Inflammation” (Mars, Inc., priority 2005, published 2009).

Test [1] deals with COX-2 mRNA. In words: RT-PCR of COX-2 mRNA in LPS and fMLP-treated U937-derived macrophages. Format: cell-based, human. Particulars: 10 μM each; for inhibition of the mRNA expression of COX-2: 2 h pretreatment before LPS 1 μg/ml priming or fMLP 10 μM stimulation, FIGS. 4 A-C; for order of suppression potency of the COX-2 mRNA expression induced by LPS and fMLP: FIG. 4C. As for the experimental part: The human monocyte line U937 was obtained from the cell bank in Shanghai Institute of Biological Sciences, Chinese Academy of Sciences. Monocytic cells of 3-4 passages were grown to confluence in RPMI 1640 (GIBCO-BRL, Glasgow, Scotland) containing 10% fetal bovine serum at 37° C. in a 5% CO2 humidified incubator during all experimental procedures. Macrophages were pretreated with procyanidins B1 dimer, B2 dimer, A1 dimer, and flavanols (−)-catechin and (+)-epicatechin (each 10) for 2 h before LPS (1 μg·ml^−1) priming or fMLP (10 μM) stimulation for 2 h. The normal macrophages without LPS or fMLP treatment were considered as controls. They were then differentiated to macrophages in the medium containing 100 nM PMA and allowed to adhere for 48 h, after which they were fed with PMA-free medium and cultured for 24 h prior to use. Cells from different groups were collected and total RNA was prepared with TRI-REAGENT-LS extraction kit The expression of RNAs was determined by RT-PCR. Complementary DNA was created from RNA using TrueScript MMLV reverse transcriptase and oligo d (T) 18 primers. 5 μg RNA was included in each reaction.
The data are presented as means±SD and compared with ANOVA and least significant difference test using SPSS statistical program. The level of the statistical significance was set at P<0.05.

Test [2] concerns COX-2 mRNA. In words: Real-time quantitative RT-PCR of COX-2 mRNA in LPS-treated differentiated THP-1 cells. Format: cell-based, human. The conditions noted are these: differentiated THP-1 cells exposed to dimer B2 and LPS 1 μg/ml for 4 h; FIG. 1. The protocol: (§1) Human monocytic THP-1 cells from acute monocytic leukemia (American Type Culture Collection, Manassas, Va.) in RPMI 1640 medium (Life Technologies, Rockville, Md.), with 4.5 g/L glucose, 10 nM HEPES, 1 mM sodium pyruvate, and 50 μM 2-ME supplemented with 10% FBS, were cultured under a humidified 5% CO2 atmosphere at 37° C. For differentiation, THP-1 cells were plated at 1×10^6 cells/ml in the medium containing 100 nM PMA and allowed to adhere for 48 h, after which they were fed with PMA-free medium and cultured for 24 h prior to use. LPS was used at concentration of 1 μg/ml in the medium. sf9 cells were cultured in monolayer at 28° C. in Grace's supplemented medium with 10% heat-inactivated fetal bovine serum.
Total RNA was extracted from macropahges with TRIzol reagent (Invitrogen Corporation, Carlsbad, Calif.). Real-time quantitative RT-PCR was performed using the Opticon 2 (MJ Research Inc., Waltham, Mass.). Sequence specific PCR primers for COX-2 [accession no. NM_000963; forward primer: 5′-[…]-3′ [SEQ ID NO: 1]; reverse primer: 5′-[…]-3′ [SEQ ID NO: 2]] and GAPDH [accession no. NM_002046; forward primer: 5′-[…]-3′ [SEQ ID NO: 3]; reverse primer: 5′-[…]-3′ [SEQ ID NO: 4]] were designed using the Primer Premier software version 5.00. Standard curves were run on the same plate and the relative standard curve method was used to calculate the relative gene expression. […]

Another test deals with COX-2 protein expression. In words: Western blot of LPS-induced COX-2 protein expression in THP-1 cells. Format: cell-based, human. Particulars: 50 μM, 30 min pretreatment with B2 followed by 4 hour LPS treatment. The protocol: as §1
5×10^6 cells were resuspended in modified RIPA lysis buffer (Tris-HCl 50 mM, pH 7.4 NaCl 150 mM, EDTA 1 mM, Na-deoxycholate 0.25%, NP-40 1%, PMSF 1 mM, Na3VO4 1 mM, NaF 1 mM, Aprotinin 10 μg/ml, leupeptin 5 μg/ml, pepstatin 5 μg/ml), and lysed cells on ice for 45 min. The lysate was centrifuged at 14,000×g for 15 min to sediment the particulate materials. The protein concentration of the supernatant was measured by the method of Lowry (Lowry et al., J. Biol. Chem. 193:265-267, 1951). Samples were electrophoresed in SDS/PAGE gels and separated proteins were transferred onto a PVDF membrane. […]

Test [3] concerns the target T1, recombinant human COX-2 enzyme (Homo sapiens, UniProt P35354).
T1 construct: made in house; host or cells: sf9 insect cells infected with hCOX-2 recombinant baculovirus
T1 sequence (P35354 18-604): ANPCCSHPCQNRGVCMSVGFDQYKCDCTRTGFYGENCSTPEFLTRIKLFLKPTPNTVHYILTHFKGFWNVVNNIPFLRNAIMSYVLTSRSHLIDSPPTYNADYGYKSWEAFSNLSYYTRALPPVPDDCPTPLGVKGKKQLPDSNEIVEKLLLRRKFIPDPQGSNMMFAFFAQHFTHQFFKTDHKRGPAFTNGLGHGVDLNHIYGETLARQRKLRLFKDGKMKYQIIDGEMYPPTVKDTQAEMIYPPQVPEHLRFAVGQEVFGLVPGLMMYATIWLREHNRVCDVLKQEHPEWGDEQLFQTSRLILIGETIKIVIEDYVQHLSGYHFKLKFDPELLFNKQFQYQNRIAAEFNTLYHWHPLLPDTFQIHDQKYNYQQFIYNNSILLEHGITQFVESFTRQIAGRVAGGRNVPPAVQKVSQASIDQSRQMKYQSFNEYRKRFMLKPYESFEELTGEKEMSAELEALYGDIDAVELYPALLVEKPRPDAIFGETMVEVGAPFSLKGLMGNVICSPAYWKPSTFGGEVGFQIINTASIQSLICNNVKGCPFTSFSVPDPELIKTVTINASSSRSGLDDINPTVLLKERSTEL
In words: Determination of COX-2 enzyme activity (PGE2 RIA, baculovirus-expressed enzyme in sf9 cells). In kind it is biochemical. The conditions noted are these: baculovirus-expressed human recombinant COX-2; 10 μmol/L arachidonic acid; FIG. 3. As for the experimental part:
The effect of procyanidin dimer B2 and NS398, a selective COX-2 inhibitor (positive control), on the activity of COX-2 was measured using baculovirus-expressed recombinant human COX-2 enzyme as previously described (Zhang et al., Acta. Pharmacol. Sin. 25(8):1000-1006, 2004). Briefly, 24 h after infecting sf9 cells with hCOX-2 recombinant baculovirus, the cells were collected and washed in HHBS. The assays were performed as follows. One milliliter of Hank's solution containing 1×10^5 COX-2 expressing cells plus 9×10^5 uninfected sf9 cells was dispensed per well of 24-well polypropylene plates. B2, NS398, or DMSO vehicle (10 μL) was added to the appropriate well containing the cell suspension. Following a 15-min drug or DMSO preincubation at 37° C., the cells were challenged with 10 μmol/L arachidonic acid
(Sigma) in ethanol and incubated for 10 min. Reactions were terminated by the addition of 100 μL of 1 mol/L HCl, neutralized with 100 μL of 1 mol/L NaOH. The cells were pelleted for 10 min at 300×g and the levels of PGE2 in the supernatant were determined by a PGE2-specific RIA (Beijing East Asia Institute of Immunology). The concentration of PGE2 was then determined by interpolation from a standard curve and inhibition calculated by comparison of the PGE2 production by drug-treated cells (B2 and NS398) with that of DMSO-treated cells.

“Also recorded” adds a separate entry of the source.

Consider `Oc1cc(O)c2c(c1)O[C@@H](c1ccc(O)c(O)c1)[C@@H](O)C2` [(+)-epicatechin], for which, in the test with COX-2 mRNA [1], the “inhibition of the mRNA expression of COX-2” value (“inhibition” for short) is reported as “significant inhibition”; the “order of suppression potency of the COX-2 mRNA expression induced by LPS and fMLP” value (“order” for short) is given as “(−)-catechin, (+)-epicatechin >B1, B2>A1”.

For `Oc1cc(O)c2c(c1)OC1(c3ccc(O)c(O)c3)Oc3cc(O)c4c(c3C2C1O)OC(c1ccc(O)c(O)c1)C(O)C4` (centres unmarked) [A1, reference compound], in the test with COX-2 mRNA [1], the “inhibition” value is “significant inhibition”; the “order” value is listed as “(−)-catechin, (+)-epicatechin >B1, B2>A1”.

Consider `Oc1cc(O)c2c(c1)O[C@H](c1ccc(O)c(O)c1)[C@H](O)[C@H]2c1c(O)cc(O)c2c1O[C@H](c1ccc(O)c(O)c1)[C@@H](O)C2` [B1, (−)-epicatechin-(4β-8)-(+)-catechin], for which, in the test on COX-2 mRNA [1], the “inhibition” value is on record as “significant inhibition”; the “order” value is “(−)-catechin, (+)-epicatechin >B1, B2>A1”.

In the case of `Oc1cc(O)c2c(c1)O[C@H](c1ccc(O)c(O)c1)[C@H](O)[C@H]2c1c(O)cc(O)c2c1O[C@H](c1ccc(O)c(O)c1)[C@H](O)C2` [B2, (−)-epicatechin-(4β-8)-(−)-epicatechin], the “levels of mRNA for COX-2 (COX-2 transcription)” value in the test on COX-2 mRNA [2] was “inhibitory effect; also recorded: reduced in a concentration-dependent manner”. Also, the “LPS-induced COX-2 protein expression” value is given as “inhibited” in the test on COX-2 protein expression (FIG. 2) and “inhibitory effect” with COX-2 protein expression (FIG. 2, listed as 132). Further, in test [3], the “effect on PGE2 synthesis (COX-2 enzyme activity)” value is recorded as “not inhibited; also recorded: no inhibitory effect”. The “inhibition” value with COX-2 mRNA [1] is “significant inhibition”. In addition, the “order” value with COX-2 mRNA [1] is on record as “(−)-catechin, (+)-epicatechin >B1, B2>A1”.

Take (−)-catechin: in the test with COX-2 mRNA [1], the “inhibition” value is recorded as “significant inhibition”; the “order” value is “(−)-catechin, (+)-epicatechin >B1, B2>A1”.
